Patent US6331555A, “Treatment of platelet derived growth factor related disorders such as cancers” (priority 1999, dated 2001)

What was measured:
[1] = test system: NIH3T3 cells overexpressing the human EGF receptor; experiment: EGF-stimulated mitosis, flow cytometry; type: cell-based, mouse; conditions: 100 mM A10
[2] = Effects of A10 on body weight and organs; type: in vivo, mouse; conditions: 20 mg/kg/day, 100 day period
Method: Vehicle control animals received IP administration of 100 μL PBTE:D5W (1:1, v:v) every day for 101 days, and untreated control animals received no treatments. There were eight animals in each group. Weights were measured on day 0 (one day prior to drug administration) and two times/week until experiment termination. The percent weight change was calculated as mean weight at each determination as compared to the mean weight on day 0.
However, after several weeks, the animals gained weight at a rate similar to untreated or vehicle-treated animals.

[3] = test system: C6 cells; experiment: PDGF-stimulated DNA synthesis, C6 cells (3H-thymidine); type: cell-based, rat; conditions: 50 ng/ml PDGF-BB
[4] = test system: A375 melanoma; experiment: SC xenograft in mice; type: in vivo, human
Method: (§1) Cell lines were grown in appropriate medium (see Appendix 1). Cells were harvested at or near confluency with 0.05% Trypsin-EDTA and pelleted at 450×g for 10 min. Pellets were resuspended in sterile PBS or media (without FBS) to a particular concentration and the cells were implanted into the hindflank of mice. Tumor growth was measured over 3 to 6 weeks using venier calipers. Tumor volumes were calculated as a product of length×width×height unless otherwise indicated. P values were calculated using the Students' t-test.
(§2) The mice were treated for three week.

[5] = test system: PC-3 prostate tumor; experiment: SC xenograft in mice; type: in vivo, human; conditions: SCID
Method: as §1, §2

[6] = test system: 9L glioma; experiment: SC xenograft in mice; type: in vivo, rat; conditions: nu/nu, 20 mg/kg/day, day 20
Method: as §1

[7] = Ex vivo conversion of A10 to B11 in human plasma
[8] = test system: tumor xenografts; experiment: Xenografts of various tumor types in mice; type: in vivo
Method: as §1

[9] = test system: spleen cells; experiment: Normal immune function in rats bearing a primary tumor; type: in vivo, rat; set-up: key to 3H-thymidine uptake: 0: no change; +/-: decrease in some drug-treated animals to levels detected in normal (non-tumor-bearing, non-drug-treated) animals; conditions: 8.4 mg/kg/day
Source text: At the indicated times, animals were sacrificed, and the spleens were aseptically removed and placed into sterile medium. Spleens were processed into single cell suspensions by grinding between sterile frosted glass microscope slides. After a single wash to remove tissue debris, the spleen cells were resuspended in a hypotonic ammonium chloride buffer to lyse erythrocytes. Lymphocytes were washed and resuspended to the appropriate concentrations in complete medium, consisting of RPMI plus 10% heat-inactivated FBS, 2 mM glutamine, 50 μM β-mercaptoethanol, and penicillin-streptomycin. The responses of the lymphocytes were examined in the following assays according to accepted procedures (Current Protocols in Immunology. Coligan, J. E., Kruisbeek, A. M., Margulies, D. H., Shevach, E. M., Strober, W. (eds.) John Wiley and Sons, Inc., 1992).
The T-cell mitogen, ConA, and the T-cell independent B-cell mitogen, LPS, were added to 96-well round-bottom wells at the indicated concentrations. Lymphocytes from normal, vehicle-dosed, and drug-dosed animals were added at a final concentration of 2.5×10^5 /well. Cultures were usually set up in triplicate or quadruplicate. The plates were incubated at 37° C. in a humidified atmosphere containing 5% CO2 for the indicated times. Supernatants (approximately 100 μL) were carefully removed from the wells and stored at -80° C. for lymphokine and immunoglobulin analyses. To measure proliferation of the lymphocytes, 1 μCi of ^3 H-thymidine was added to each well, and the plates were incubated for 6 hr. The cultures were harvested onto glass fiber filters, and the incorporated radioactivity was quantitated by liquid scintillation counting (Betaplate, Wallac).
Lymphocytes from normal, vehicle-dosed, and drug-dosed animals were plated at 2.5×10^5 /well in round-bottom 96-well plates. Stimulator cells were then added at the same cell concentration. The stimulator cells consisted of syngeneic or allogeneic lymphocytes which had been treated with 50 μg/mL of mitomycin C for 30 min prior to the assay. The plates were incubated for 3 to 4 days, at which time supernatants were harvested and the cultures were pulsed as described for the mitogen assays.
Supernatants from mitogen and MLR cultures were assayed for IL-2 and IL-6 content by the ability to support the growth of factor-dependent cell lines. HT-2 cells (10^4 /well, IL-2-dependent) and 7TD1 cells (2×10^3 /well, IL-6-dependent) were plated in 96-well flat-bottom plates, in 50 μL/well. Supernatants were added in 50 μL/well, and the plates were incubated overnight (HT-2) or four days (7TD1). Cellular proliferation was determined in the MTT colorimetric assay (Appendix 3.1).
Wistar rats received SC implants of C6 cells on day 0. […] The control group was not treated after tumor implantation. On day 21, the animals were sacrificed and the spleens were removed for in vitro analyses. Splenocytes were stimulated with ConA, LPS, and alloantigen (DA rat spleen cells) as in the murine studies.

**Q.** What does the source list for `Cc1oncc1C(=O)Nc1ccc(C(F)(F)F)cc1` [Compound A10, 5-methylisoxazole-4 carboxylic acid-(4-trifluromethyl)-anilide]?
**A.** EGF-stimulated mitosis [1]: not able to inhibit EGF-stimulated mitosis; mortality [2]: no mortality was observed; PDGF-stimulated DNA synthesis [3]: decreased PDGF-stimulated DNA synthesis in both types of cells; tumor growth inhibition ([4]; 15 mg/kg/day, five days per week, from day 9, after three weeks): about 40%; % Inhibition ([4]; SCID, 15 mg/kg/day, day 31, treatment from day 9): 35%; % Inhibition ([4]; nu/nu, 20 mg/kg/day, day 31): 53%; tumor growth inhibition ([5]; 12 mg/kg/day (PBTE:D5W), five days per week, from day 15, after three weeks): about 50%; % Inhibition ([5]; 12 mg/kg/day, day 36, treatment from day 15): 47%; % Inhibition [6]: 83%; time of complete conversion to B11 ([7]; 25° C., human plasma): ≤ 21 h; A10 remaining, co-incubation of B11 and A10 ([7]; fresh human plasma, after 21 hr): No A10 was detected after 21 hr; conversion to B11 in heat-inactivated plasma ([7]; human, 15 min at 60° C.): does not occur; growth of xenografts ([8]; 12 to 20 mg/kg/day, glioma, SKOV3T, PA-1, A375, PC-3, Calu-6, D1B, L1210): effectively inhibited the growth; inhibition of glioma growth ([8]; xenografted gliomas in mice, some animals, relative to untreated controls): greater than 95%; syngeneic MLR proliferative response [9]: reduced in one of four A10-treated tumor-bearing animals; 3H-thymidine uptake ([9]; Allo): 0; IL-2 production ([9]; Allo): 0; IL-6 production ([9]; Allo): 0; 3H-thymidine uptake ([9]; ConA): 0; IL-2 production ([9]; ConA): 0; IL-6 production ([9]; ConA): 0; 3H-thymidine uptake ([9]; LPS): 0; IL-2 production ([9]; LPS): 0; IL-6 production ([9]; LPS): 0; 3H-thymidine uptake ([9]; Syn): +/-; IL-2 production ([9]; Syn): 0; IL-6 production ([9]; Syn): 0; 3H-thymidine uptake ([9]; Tumor stimulus): 0; IL-2 production ([9]; Tumor stimulus): 0; IL-6 production ([9]; Tumor stimulus): 0
